Measurements: patent US10501425B2, “Microbiocidal oxadiazole derivatives” (SYNGENTA PARTICIPATIONS AG, priority 2015, dated 2019)

Tests used:
[1] = tested on: Puccinia recondita f. Sp. Tritici; assay: Puccinia recondita f. sp. tritici / wheat / leaf disc curative (brown rust); type: in vivo; settings: foliar, 24 h, 200 ppm in the applied formulation, wheat leaf segments cv. Kanzler, curative (applied 1 day after inoculation), compared to untreated, read-out: disease control
Procedure: (§1) Leaf disks or leaf segments of various plant species are cut from plants grown in a greenhouse. The cut leaf disks or segments are placed in multiwell plates (24-well format) onto water agar. The leaf disks are sprayed with a test solution before (preventative) or after (curative) inoculation. Compounds to be tested are prepared as DMSO solutions (max. 10 mg/ml) which are diluted to the appropriate concentration with 0.025% Tween20 just before spraying. The inoculated leaf disks or segments are incubated under defined conditions (temperature, relative humidity, light, etc.) according to the respective test system. A single evaluation of disease level is carried out 3 to 14 days after inoculation, depending on the pathosystem. Percent disease control relative to the untreated check leaf disks or segments is then calculated.
Wheat leaf segments cv. Kanzler are placed on agar in multiwell plates (24-well format). The leaf segments are then inoculated with a spore suspension of the fungus. Plates were stored in darkness at 19° C. and 75% relative humidity. The formulated test compound diluted in water was applied 1 day after inoculation. The leaf segments were incubated at 19° C. and 75% relative humidity under a light regime of 12 hours light/12 hours darkness in a climate cabinet and the activity of a compound was assessed as percent disease control compared to untreated when an appropriate level of disease damage appears in untreated check leaf segments (6 to 8 days after application).
The following compounds at 200 ppm in the applied formulation give at least 80% disease control in this test when compared to untreated control leaf disks under the same conditions, which show extensive disease development.

[2] = tested on: Puccinia recondita f. Sp. Tritici; assay: Puccinia recondita f. sp. tritici / wheat / leaf disc preventative (brown rust); type: in vivo; settings: foliar, 200 ppm in the applied formulation, wheat leaf segments cv. Kanzler, preventative (inoculated 1 day after application), compared to untreated, read-out: disease control
Procedure: as §1, with “calculated. Wheat leaf segments cv. Kanzler were placed on agar in multiwell plates (24-well format) and sprayed with the formulated test compound diluted in water. The leaf disks were inoculated with a spore suspension of the fungus 1 day after application. The inoculated leaf segments were incubated at 19° C. and 75% relative humidity (rh) under a light regime of 12 hours light/12 hours darkness in a climate cabinet and the activity of a compound was assessed as percent disease control compared to untreated when an appropriate level of disease damage appears in untreated check leaf segments (7 to 9 days after application). The following compounds at 200 ppm in the applied formulation give at least 80% disease control in this test when compared to untreated control leaf disks under the same conditions, which show extensive disease development.” for “calculated.”

[3] = tested on: Glomerella lacenarium (Colletotrichum lagenarium); assay: Glomerella lagenarium liquid culture / cucumber / preventative (anthracnose); type: cell-based; settings: Colletotrichum orbiculare; 20 ppm in the applied formulation; liquid culture (PDB), growth inhibition measured photometrically 3 to 4 days after application; compared to untreated; read-out: disease control
Procedure: Mycelia fragments or conidia suspensions of a fungus prepared either freshly from liquid cultures of the fungus or from cryogenic storage, are directly mixed into nutrient broth. DMSO solutions of the test compound (max. 10 mg/ml) are diluted with 0.025% Tween20 by a factor of 50 and 10 μl of this solution is pipetted into a microtiter plate (96-well format). The nutrient broth containing the fungal spores/mycelia fragments is then added to give an end concentration of the tested compound. The test plates are incubated in the dark at 24° C. and 96% relative humidity. The inhibition of fungal growth is determined photometrically after 2 to 7 days, depending on the pathosystem, and percent antifungal activity relative to the untreated check is calculated.
Conidia of the fungus from cryogenic storage are directly mixed into nutrient broth (PDB—potato dextrose broth). After placing a (DMSO) solution of test compound into a microtiter plate (96-well format), the nutrient broth containing the fungal spores is added.
The following compounds at 20 ppm in the applied formulation give at least 80% disease control in this test when compared to untreated control under the same conditions, which show extensive disease development.

CC(C)C(=O)NCc1ccc(-c2noc(C(F)(F)F)n2)cn1 [Compound 1.66, 2-methyl-N-[[5-[5-(trifluoromethyl)-1,2,4-oxadiazol-3-yl]-2-pyridyl]methyl]propanamide]
≥ 80%: pest or weed control at 200 ppm [1] | pest or weed control at 200 ppm [2] | inhibition of growth at 20 ppm [3]

CCCC(=O)NCc1ccc(-c2noc(C(F)(F)F)n2)cn1 [Compound 1.67, N-[[5-[5-(trifluoromethyl)-1,2,4-oxadiazol-3-yl]-2-pyridyl]methyl]butanamide]
≥ 80%: pest or weed control at 200 ppm [1] | pest or weed control at 200 ppm [2] | inhibition of growth at 20 ppm [3]

COCC(=O)NCc1ccc(-c2noc(C(F)(F)F)n2)cn1 [Compound 1.69, 2-methoxy-N-[[5-[5-(trifluoromethyl)-1,2,4-oxadiazol-3-yl]-2-pyridyl]methyl]acetamide]
≥ 80%: pest or weed control at 200 ppm [1] | pest or weed control at 200 ppm [2] | inhibition of growth at 20 ppm [3]

CCC(C)C(=O)NCc1ccc(-c2noc(C(F)(F)F)n2)cn1 (stereo not drawn) [Compound 1.71, 2-methyl-N-[[5-[5-(trifluoromethyl)-1,2,4-oxadiazol-3-yl]-2-pyridyl]methyl]butanamide]
≥ 80%: pest or weed control at 200 ppm [1] | pest or weed control at 200 ppm [2] | inhibition of growth at 20 ppm [3]

COCCCC(=O)NCc1ccc(-c2noc(C(F)(F)F)n2)cn1 [Compound 1.72, 4-methoxy-N-[[5-[5-(trifluoromethyl)-1,2,4-oxadiazol-3-yl]-2-pyridyl]methyl]butanamide]
≥ 80%: pest or weed control at 200 ppm [1] | pest or weed control at 200 ppm [2] | inhibition of growth at 20 ppm [3]

O=C(CC(F)(F)F)NCc1ccc(-c2noc(C(F)(F)F)n2)cn1 [Compound 1.74, 3,3,3-trifluoro-N-[(5-[5-(trifluoromethyl)-1,2,4-oxadiazol-3-yl]-2-pyridyl]methyl]propanamide]
≥ 80%: pest or weed control at 200 ppm [1] | pest or weed control at 200 ppm [2] | inhibition of growth at 20 ppm [3]

CC(=O)NCc1ccc(-c2noc(C(F)(F)F)n2)cn1 [Compound 1.75, N-[[5-[5-(trifluoromethyl)-1,2,4-oxadiazol-3-yl]-2-pyridyl]methyl]acetamide]
≥ 80%: pest or weed control at 200 ppm [1] | pest or weed control at 200 ppm [2] | inhibition of growth at 20 ppm [3]

COCCC(=O)NCc1ccc(-c2noc(C(F)(F)F)n2)c(F)c1 [Compound 1.79, N-[[3-fluoro-4-[5-(trifluoromethyl)-1,2,4-oxadiazol-3-yl]phenyl]methyl]-3-methoxy-propanamide]
≥ 80%: pest or weed control at 200 ppm [1] | pest or weed control at 200 ppm [2] | inhibition of growth at 20 ppm [3]

CC(C)(C)COC(=O)NCc1ccc(-c2noc(C(F)(F)F)n2)cc1 [Compound 2.18, 2,2-dimethylpropyl N-[[4-[5-(trifluoromethyl)-1,2,4-oxadiazol-3-yl]phenyl]methyl]carbamate]
≥ 80%: pest or weed control at 200 ppm [1] | pest or weed control at 200 ppm [2] | inhibition of growth at 20 ppm [3]

CCCOC(=O)NCc1ccc(-c2noc(C(F)(F)F)n2)cn1 [Compound 2.20, propyl N-[[5-[5-(trifluoromethyl)-1,2,4-oxadiazol-3-yl]-2-pyridyl]methyl]carbamate]
≥ 80%: pest or weed control at 200 ppm [1] | pest or weed control at 200 ppm [2] | inhibition of growth at 20 ppm [3]

CC#CCOC(=O)NCc1ccc(-c2noc(C(F)(F)F)n2)cn1 [Compound 2.21, but-2-ynyl N-[[5-[5-(trifluoromethyl)-1,2,4-oxadiazol-3-yl]-2-pyridyl]methyl]carbamate]
≥ 80%: pest or weed control at 200 ppm [1] | pest or weed control at 200 ppm [2] | inhibition of growth at 20 ppm [3]

CC(C)COC(=O)NCc1ccc(-c2noc(C(F)(F)F)n2)cn1 [Compound 2.22, isobutyl N-[[5-[5-(trifluoromethyl)-1,2,4-oxadiazol-3-yl]-2-pyridyl]methyl]carbamate]
≥ 80%: pest or weed control at 200 ppm [1] | pest or weed control at 200 ppm [2] | inhibition of growth at 20 ppm [3]
